Source: patent publication US5041557A, “Furan derivatives” (Laboratorios Vinas S.A., priority 1989, dated 1991)

Experiments:
[1] = system: histamine induced gastric acid secretion; assay: "In vivo" histamine induced gastric acid secretion model in the rat; conditions: Wistar rats, intraperitoneal
Method: (§1) As stated above, the formula I compounds have shown a potent antiulcer activity. Thus the inhibition of histamine induced gastric secretion "in vivo" in rats, after intraperitoneal administration of these zinc-furan compounds at dose levels of 0.5; 1; 2 and 4 mg/kg reaches pH recovery levels, increasing with the dose, of 100%.
This activity was measured in Wistar rats having a body weight of 240±20 g. An endovenous perfusion of a histamine solution stimulated the gastric secretion producing a drop in the intragastric pH. LV-208 was thereafter administered intraperitoneally and the increase in the gastric pH that this produced was evaluated. An ED50 of 0.8 mg/kg and recovery of 100% at a dose of 4 mg/kg was obtained by a dose-response curve.

[2] = system: ethanol induced ulcers (gastric mucous membrane); assay: Necrosing agent model: ethanol induced ulcers in the rat; format: in vivo; conditions: for mm lesion (lesion index, mm of ulcer) / % inhibition (ulcer inhibition percentage versus control): ethanol, LV-208 100 mg/kg, Rn equimolar dose; for mm lesion (lesion index, mm of ulcer): mean ± error of the mean, control 82.0 ± 10.1, LV-208: p < 0.001 versus control, p < 0.05 versus Rn (t test); for % inhibition (ulcer inhibition percentage versus control): versus control group; for protection against the ethanol induced aggression: rat, equimolar doses of LV-208 and Rn, result in words
Method: as §1
Particularly, the antiulcer activity of the compound LV-208 has been studied with evaluation of the secretion inhibiting and gastric mucous membrane protecting activity in the rat.
The activity of LV-208 was compared with the activity of Rn at equimolar doses using the necrosing agent model, ethanol in this case, described by Robert et al. (Gastroenterology, 77: 433, 1979), versus a control group administered excipient.
The following Table gives the lesion indexes (in mm of ulcer) of the three groups studied, as well as the ulcer inhibition percentages of the treated groups versus the control group (mean values±the error of the mean).

Structure (SMILES)	recovery (gastric pH) ([1]; dose of 4 mg/kg) [%]	ED50 (increase in gastric pH, inhibition of histamine induced gastric acid secretion) ([1]; endovenous histamine perfusion, dose-response curve) [mg/kg]	mm lesion (lesion index, mm of ulcer) [2] [mm]	% inhibition (ulcer inhibition percentage versus control) [2] [%]	protection against the ethanol induced aggression [2]
CNC(=C[N+](=O)[O-])NCCSCc1ccc(CN(C)C)o1.[Cl][Zn][Cl] [LV-208]	100	0.8	4.8 ± 1.8	94.1	practically complete protection
CNC(=C[N+](=O)[O-])NCCSCc1ccc(CN(C)C)o1 [Rn, N,N-dimethyl-5-(2-(1-methylamino-2-nitrovinylamino)ethylthiomethyl)furfurylamine, reference compound]			40.6 ± 15.0	50.5	discreet protection
